The numbers were not newly measured in patent US20240415910A1, “Toxicity-Removed and Medicinal Effect-Retained Fuzi Decoction Granule and Preparation Method Thereof” (Zhejiang Chinese Medical University, priority 2023, published 2024), which cites them from elsewhere.

For series [1] the following is noted: oral administration.
For series [2] the following is noted: water and ethanol.

With `CCN1C[C@]2(COC)[C@H](O)C[C@H](OC)[C@@]34[C@@H]5C[C@@]6(O)[C@H](OC(=O)c7ccccc7)[C@@H]5[C@@](OC(C)=O)([C@@H]([C@H](OC)[C@H]23)[C@@H]14)[C@@H](O)[C@@H]6OC` [Aconitine], the “oral amount that can cause poisoning reactions” value in series [1] is listed as 0.2 mg. Also, in series [2], the solubility entry is “soluble in both water and ethanol”.
